The values that follow come from patent US20240269303A1, “CELL TARGETING CONSTRUCTS AND USES THEREOF” (Research Development Foundation, priority 2022, published 2024).

The subject of experiment [1] is HEK293/LGR5 cells. As to the kind of experiment: Growth rate inhibition assay (CCK8, 120 h exposure). It is filed as cell-based, human.
The subject of experiment [2] is OVCAR8/EV cells. The description is as above. As to conditions: OVCAR8/EV (LGR5-poor) cells. The experiment is classed as cell-based, human.
The test system of experiment [3] is OVCAR8/LGR5 cells. Described as above. It is filed as cell-based, human.
Experiment [4] deals with T1, LGR5 (Homo sapiens, UniProt O75473).
T1 sequence (O75473 22-907): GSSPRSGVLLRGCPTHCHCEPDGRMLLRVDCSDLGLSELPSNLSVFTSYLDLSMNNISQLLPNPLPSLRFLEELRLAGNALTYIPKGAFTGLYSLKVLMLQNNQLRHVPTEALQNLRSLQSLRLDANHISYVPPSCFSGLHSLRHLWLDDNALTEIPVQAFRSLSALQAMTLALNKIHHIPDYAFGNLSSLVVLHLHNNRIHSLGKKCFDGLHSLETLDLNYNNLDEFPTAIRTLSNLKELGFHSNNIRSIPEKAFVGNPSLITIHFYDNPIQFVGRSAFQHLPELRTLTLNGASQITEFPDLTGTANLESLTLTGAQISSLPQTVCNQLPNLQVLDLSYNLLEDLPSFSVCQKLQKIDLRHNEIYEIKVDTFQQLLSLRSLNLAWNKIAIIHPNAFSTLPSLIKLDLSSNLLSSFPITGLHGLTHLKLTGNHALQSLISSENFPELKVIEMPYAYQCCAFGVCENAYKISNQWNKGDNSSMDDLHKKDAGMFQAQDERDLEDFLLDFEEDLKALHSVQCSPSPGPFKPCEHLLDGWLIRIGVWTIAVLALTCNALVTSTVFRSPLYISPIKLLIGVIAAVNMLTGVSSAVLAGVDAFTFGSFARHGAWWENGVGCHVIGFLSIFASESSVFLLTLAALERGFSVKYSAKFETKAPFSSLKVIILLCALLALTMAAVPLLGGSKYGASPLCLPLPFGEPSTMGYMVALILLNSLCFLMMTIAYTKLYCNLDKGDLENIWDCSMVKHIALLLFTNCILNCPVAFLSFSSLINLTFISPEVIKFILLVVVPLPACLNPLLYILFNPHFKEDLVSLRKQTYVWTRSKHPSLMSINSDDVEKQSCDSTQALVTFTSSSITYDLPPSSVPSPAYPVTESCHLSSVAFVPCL
As to conditions: read-out: affinity; cited from earlier work.

Experiment [5] concerns the target T2, LGR6 (Homo sapiens, UniProt Q9HBX8).
T2 sequence (Q9HBX8 25-967): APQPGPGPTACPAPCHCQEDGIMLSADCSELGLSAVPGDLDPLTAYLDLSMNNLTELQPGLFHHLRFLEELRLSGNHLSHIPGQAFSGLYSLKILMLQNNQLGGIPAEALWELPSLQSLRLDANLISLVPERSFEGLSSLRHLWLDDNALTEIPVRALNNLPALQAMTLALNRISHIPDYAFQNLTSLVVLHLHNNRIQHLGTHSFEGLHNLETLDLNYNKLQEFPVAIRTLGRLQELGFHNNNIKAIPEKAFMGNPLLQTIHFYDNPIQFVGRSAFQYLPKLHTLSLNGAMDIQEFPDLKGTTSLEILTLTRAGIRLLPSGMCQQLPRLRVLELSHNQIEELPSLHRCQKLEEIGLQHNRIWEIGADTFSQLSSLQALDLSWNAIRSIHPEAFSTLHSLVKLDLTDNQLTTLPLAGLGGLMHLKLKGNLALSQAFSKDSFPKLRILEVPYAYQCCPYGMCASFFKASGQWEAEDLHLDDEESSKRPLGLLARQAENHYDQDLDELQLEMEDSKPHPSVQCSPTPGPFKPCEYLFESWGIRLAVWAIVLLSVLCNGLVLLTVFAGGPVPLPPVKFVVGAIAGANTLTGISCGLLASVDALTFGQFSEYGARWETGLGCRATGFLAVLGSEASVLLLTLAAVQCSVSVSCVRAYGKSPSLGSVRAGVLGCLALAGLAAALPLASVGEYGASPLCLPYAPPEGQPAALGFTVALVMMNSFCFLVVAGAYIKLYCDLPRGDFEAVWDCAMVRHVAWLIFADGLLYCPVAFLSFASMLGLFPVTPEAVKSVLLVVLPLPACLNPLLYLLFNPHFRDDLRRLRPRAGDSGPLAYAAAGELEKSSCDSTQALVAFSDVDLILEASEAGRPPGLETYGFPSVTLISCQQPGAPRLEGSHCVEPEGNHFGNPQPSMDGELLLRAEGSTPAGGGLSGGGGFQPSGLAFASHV
As to conditions: read-out: affinity; cited from earlier work.

For orientation: IC50 means the midpoint of a concentration-inhibition curve. Low readings indicate higher potency, high ones lower potency.

Square brackets hold non-standard residues; d marks the D form. Peptide text beside a SMILES is read from it. * marks the point of attachment. Dolaproine = CO[C@@H]([C@@H]1CCCN1)[C@@H](C)C(=O)O; Dil = CC[C@H](C)[C@H](NC)[C@@H](CC(=O)O)OC; X1 = C[C@@H](N*)[C@@H](O)c1ccccc1; NMeV = CN[C@H](C(=O)O)C(C)C

Take `CC[C@H](C)[C@@H]([C@@H](CC(=O)N1CCC[C@H]1[C@H](OC)[C@@H](C)C(=O)N[C@H](C)[C@@H](O)c1ccccc1)OC)N(C)C(=O)[C@@H](NC(=O)[C@@H](NC)C(C)C)C(C)C` [free MMAE, Monomethyl auristatin E, reference compound] (H-[NMeV]V[Dil][Dolaproine]-X1): in experiment [1], the “HEK293/LGR5 cells more resistant than HEK293/EV cells” value is listed as 1.6 fold. Also, the IC50 in experiment [2] was determined as 85 nM; in experiment [3] (OVCAR8/LGR5 (LGR5-rich) cells, 120 h exposure, CCK8) it was 129 nM. In addition, in experiment [3], the “OVCAR8/LGR5 cells more resistant than OVCAR8/EV cells” value is on record as 1.5 fold.

Consider “Fu1-Fu2 domain of RSPO1: receptor-binding Fu1-Fu2 domain of human RSPO1”, for which the Kd in experiment [4] and in experiment [5] was ~3 nM throughout.
